Measured values: patent US20250101104A1, “BISPECIFIC MOLECULE WITH TUNABLE AFFINITY TO A TARGETED ANTIGEN” (MABSWITCH INC., priority 2022, published 2025)

What was measured:
CD123+KG-1a = settings: cited from earlier work
[1] = mice; cited from earlier work
[2] = tested on: circulating CD123^+ cells; settings: cited from earlier work
TF-1 AML cell lines = settings: cited from earlier work
[3] = target: T1, Human CD3 epsilon&CD3 gamma Heterodimer Protein (Homo sapiens, UniProt P07766); assay: Bispecific functionality ELISA (captured CD3, detection with biotinylated CD33 Fc-fusion); format: binding; settings: affinity to the CD3 antigen
T1 construct: purchased Biorbyt Ltd, Cambridge, United Kingdom
Method: Bispecific functionality is tested in an ELISA using soluble Human CD3 epsilon&CD3 gamma Heterodimer Protein (Biorbyt Ltd, Cambridge, United Kingdom) that is captured to the ELISA plate surface and an Fc-fusion of CD33 that carried an AviTag™ (biotinylated) (BPS Bioscience, Inc., San Diego, USA) detected by HRP conjugated streptavidin (BPS Bioscience, Inc., San Diego, USA). Dilution curves of the protein A purified bispecific scFv-Fc constructs are compared. For control, a bispecific scFv-Fc construct wherein the linker between the OKT3 variable heavy chain sequence to the OKT3 variable light chain sequence is a non-switchable variant (GGGGSGGGGSGG GGS (SEQ ID NO: 365)) is constructed, produced and purified as described above.

[4] = tested on: CD3 positive Jurkat cells; assay: Switch activity on living cells, flow cytometry; format: cell-based; settings: incubated with the switch peptide variant SEQ ID NO:2
Method: The bispecific switchable anti-CD3/antiCD33 Fc fusion protein product MS42-13 is further tested for switch activity in the presence and absence of switch linkers on living cells using flow cytometry. For the cytofluorometry analysis, CD3 positive Jurkat cells (ATCC, Clone E6-1), cultivated in suspension culture as described by the provider, are seeded in FACS tubes and washed with 3 mL PBS supplemented with 2 mM EDTA and 2% (v/v) FCS (centrifugation for 5 min at 500×g and 4-C). Cells are incubated with […] of various dilutions of scFv-Fc bispecific antibody constructs (between 10 ng/mL and […]) for 1 h on ice. Cells are washed two times with 3 mL PBS (centrifugation for 5 min at 500×g and 4-C) and are incubated with 100 μL Fc-fusion of CD33 that carried an AviTag™ (biotinylated) (BPS Bioscience, Inc., San Diego, USA) (Fc-specific) for 1 h on ice in the dark in either the presence or absence of the switch peptides (1 μM or 10 μM). […] A minimum of 10^4 events are analyzed per sample. Analysis is performed with CXP analysis 2.2 software (Beckman Coulter, Fullerton, CA) and Mean Fluorescence Intensities (MFI) are determined using Flowjo™ software (Treestar).

T1 sequence (P07766 23-126 limits assumed): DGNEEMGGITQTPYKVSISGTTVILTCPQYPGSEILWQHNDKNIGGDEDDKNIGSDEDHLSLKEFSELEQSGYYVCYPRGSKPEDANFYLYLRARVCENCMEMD
T1 sequence (P09693 23-116 partner limits assumed): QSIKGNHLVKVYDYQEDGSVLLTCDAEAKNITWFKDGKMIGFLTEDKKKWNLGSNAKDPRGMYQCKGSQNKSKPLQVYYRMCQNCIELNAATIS

## XmAb14045: Fc domain-containing bispecific antibody stimulating T cell-mediated killing of CD123+ cells
CD123+KG-1a
  EC50 of T cell-mediated killing: < 1 ng/mL
[1]
  serum half-life: 149 h
[2]; cynomolgus monkeys
  T cell activation: strongly activated T cells
[2]; within 1 hour of administration
  depletion of circulating CD123+ cells including basophils and plasmacytoid dendritic cells: over 99%
TF-1 AML cell lines
  EC50 of T cell-mediated killing: < 1 ng/mL

## MS42-13: switchable bispecific anti-CD3/anti-CD33 scFv-Fc fusion: OKT3 scFv with calmodulin switch linker, gemtuzumab scFv, knob-into-hole Fc (SEQ ID NO:366, 367)
[3]
  drop in EC50 compared to the construct with the non-switchable wild type Gly-Ser linker: 24.6 fold
[4]
  increase of half-maximal binding compared to the construct with the non-switchable linker (SEQ ID NO:365): ≤ 21.3 fold
